According to BigSolDB 2.1:

O=C(O)CC[C@H](NC(=O)OCC1c2ccccc2-c2ccccc21)C(=O)O
solubility (mole fraction)
Conditions | 283.15 K | 288.15 K | 293.15 K | 298.15 K | 303.15 K | 308.15 K | 313.15 K | 318.15 K | 323.15 K
in 2-butanone | 0.0112 | 0.0112 | 0.012 | 0.0127 | 0.0136 | 0.0143 | 0.0157 | 0.0176 | 0.0191
in acetone | 0.0243 | 0.0261 | 0.0274 | 0.0295 | 0.0323 | 0.0342 | 0.0393 | 0.0437 | 0.0471
in acetonitrile | 0.000662 | 0.000708 | 0.0008 | 0.000997 | 0.00123 | 0.00139 | 0.00166 | 0.00194 | 0.00232
in dimethyl carbonate | 0.00058 | 0.000625 | 0.000736 | 0.000819 | 0.000911 | 0.00108 | 0.00123 | 0.00157 | 0.00186
in ethanol | 0.0231 | 0.0257 | 0.0276 | 0.0319 | 0.0371 | 0.0419 | 0.0468 | 0.0514 | 0.0598
in ethyl acetate | 0.00239 | 0.0026 | 0.00296 | 0.00318 | 0.00347 | 0.00391 | 0.00451 | 0.00498 | 0.0056
in isopropanol | 0.0139 | 0.0142 | 0.0156 | 0.0175 | 0.0199 | 0.0238 | 0.0269 | 0.0302 | 0.0351
in methanol | 0.0246 | 0.0266 | 0.0295 | 0.0325 | 0.0364 | 0.0413 | 0.0471 | 0.0525 | 0.0611
in methyl acetate | 0.00319 | 0.00355 | 0.00388 | 0.00418 | 0.00473 | 0.00535 | 0.00609 | 0.00726 | 0.00888
in n-butanol | 0.00911 | 0.00972 | 0.0102 | 0.0114 | 0.0127 | 0.0141 | 0.016 | 0.0173 | 0.0199
in n-butyl acetate | 0.00177 | 0.00182 | 0.00204 | 0.0022 | 0.00238 | 0.00269 | 0.00309 | 0.0034 | 0.00381
in n-pentanol | 0.00655 | 0.00765 | 0.00845 | 0.00993 | 0.0112 | 0.0128 | 0.0159 | 0.0187 | 0.0221
in n-propanol | 0.0138 | 0.0146 | 0.0155 | 0.0172 | 0.02 | 0.0237 | 0.0258 | 0.03 | 0.0333
in n-propyl acetate | 0.0016 | 0.00169 | 0.00192 | 0.00204 | 0.00232 | 0.00247 | 0.00281 | 0.00317 | 0.00355
